Reference: article PMC6743424, “Phenolic acid phenethylesters and their corresponding ketones: Inhibition of 5‐lipoxygenase and stability in human blood and HepaRG cells” (Pharmacology Research & Perspectives, 2019)
Like-named read-outs stand apart in the source and are kept apart here. Values belong to the molecule of their own block, whether it stands above or below them.

Key:
HepaRG cells = assay: Residual inhibition of 5‐LO product biosynthesis in blood after incubation with HepaRG cells; type: in vitro ADME, human; conditions: for Inhibitory activity against 5‐LO product biosynthesis after incubation with HepaRG cells: 50 µmol/L with HepaRG cells, after 60 minutes, medium added to blood, zymosan, LTB4
Description: Differentiated HepaRG cells, plated in 24 well plates, were washed with hepatocyte suspension medium (Williams E‐medium without phenol red, supplemented with 2 mmol/L Glutamax and […] HEPES) before addition of hepatocyte suspension medium (250 µL/well) containing (30 or 50 µmol/L) of the test compounds or their diluent. Cells were then incubated for 7.5, 15, 30, 60 or 90 minutes at 37°C after which the medium was removed.
In experiments where the inhibitory capacity of test compounds was to be determined after incubation with HepaRG cells, 125 µL of the hepatocyte suspension medium containing test compounds that had been collected at different time points from HepaRG cultures was added to 1 mL of heparinized blood. After a 5 minutes of preincubation, blood was then stimulated with opsonized zymosan and processed for HPLC analysis of 5‐LO metabolites as described above.
Figure 6 Stability of the test compounds for the inhibition of the biosynthesis of 5‐LO products following incubation with HepaRG cells. HepaRG cells were incubated with […] of hepatocyte suspension medium containing 50 µmol/L of test compounds for the indicated times at 37°C. Hepatocyte suspension medium (125 µL) was then removed and added to 1 mL of blood that was then incubated for 5 minutes and then stimulated with opsonized zymosan (4 mg/mL) for 30 minutes at 37°C. Blood was then centrifuged and plasma was collected and added to 1.2 mL of CH3OH:CH3CN (1:1). Samples were processed for analysis using RP‐HPLC for LTB4 quantification. Data are expressed as means ± SEM of at least three independent experiments. *Difference from time = 0, as determined using One‐way ANOVA with Dunnett's multiple comparison test (P < .05)

5‐LO [1] = molecular target: T1, 5‐LO (Homo sapiens, UniProt P09917); assay: Biosynthesis of 5‐LO products in stimulated HEK293 cells expressing 5‐LO and FLAP; type: cell-based; set-up: expressed in transfected cells; host or cells: HEK293 cells (ATCC), stably transfected; conditions: 1 μmol/L, 5 min preincubation; 10 μmol/L A23187 + 10 μmol/L arachidonic acid 15 min
T1 sequence (P09917 1-674): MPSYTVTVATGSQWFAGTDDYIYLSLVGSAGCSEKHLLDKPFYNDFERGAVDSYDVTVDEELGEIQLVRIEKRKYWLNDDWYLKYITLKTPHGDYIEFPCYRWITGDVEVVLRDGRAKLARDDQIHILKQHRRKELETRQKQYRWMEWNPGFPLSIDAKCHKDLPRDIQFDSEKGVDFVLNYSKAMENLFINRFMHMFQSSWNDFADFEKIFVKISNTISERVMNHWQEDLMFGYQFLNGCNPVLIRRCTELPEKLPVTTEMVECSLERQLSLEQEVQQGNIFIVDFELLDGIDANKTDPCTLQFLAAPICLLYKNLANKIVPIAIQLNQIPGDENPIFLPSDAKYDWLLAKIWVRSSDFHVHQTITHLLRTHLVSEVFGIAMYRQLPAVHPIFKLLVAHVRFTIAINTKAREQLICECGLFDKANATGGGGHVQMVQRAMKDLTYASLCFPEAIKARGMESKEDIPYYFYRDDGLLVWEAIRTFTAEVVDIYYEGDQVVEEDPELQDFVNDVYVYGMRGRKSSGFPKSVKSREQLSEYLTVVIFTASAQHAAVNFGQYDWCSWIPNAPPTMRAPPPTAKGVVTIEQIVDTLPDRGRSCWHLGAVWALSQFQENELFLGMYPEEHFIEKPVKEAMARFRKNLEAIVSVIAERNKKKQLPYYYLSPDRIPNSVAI
Description: HEK293 cells were obtained from ATCC (Manassas) and were cultured in Dulbecco’s Modified Eagle Medium (DMEM) supplemented with 10% fetal bovine serum. Cells were stably transfected with 5‐lipoxygenase and 5‐lipoxygenase activating protein (FLAP) as previously described.31
Transfected HEK293 cells were collected and resuspended in Hank's balanced salt solution (HBSS, Lonza) containing 1.6 mmol/L CaCl2 at a concentration of 5 × 10^5 cells/mL, and were preincubated with each compound at concentration of 1 µmol/L for 5 minutes at 37°C. Cells were then stimulated for 15 minutes at 37°C with the addition of 10 µmol/L calcium ionophore A23187 (Sigma‐Aldrich) and 10 µmol/L arachidonic acid (Cayman Chemical).28 Stimulations were stopped by adding 0.5 volume of cold CH3OH:CH3CN (1:1) containing 100 ng/mL of prostaglandin B2 (PGB2) as internal standard. Samples were stored at −20°C and analyzed for 5‐LO products using reversed‐phase high‐performance liquid chromatography (RP‐HPLC) as described previously.32
Figure 2 The structures of the tested compounds (A) and their effects on the biosynthesis of 5‐LO products in transfected HEK293 cells (B). HEK293 cells expressing 5‐LO and FLAP were incubated in presence of the indicated compounds (1 μmol/L) or their diluent (Control, 0.1% DMSO) for 5 minutes, followed by the addition of 10 μmol/L calcium ionophore A23187 and 10 μmol/L arachidonic acid for 15 minutes. Reactions were then stopped, and samples were processed for analysis of 5‐LO products using RP‐HPLC. Total 5‐LO products measured represent the sum of LTB4, its trans isomers and 5‐hydroxyeicosatetraenoic acid. Data are expressed as means ± SEM of at least three independent experiments. *Difference from control as determined using one‐way ANOVA with Dunnett's multiple comparison test (P < .05)

5‐LO [2] = molecular target: T1, 5‐LO; set-up: endogenous in cells; host or cells: human polymorphonuclear leukocytes isolated from heparinized blood; method as in PMID 22347509, PMID 28680195; conditions: read-out: IC50 of LT biosynthesis in isolated human neutrophils; cited from earlier work
[3] = set-up: method as in PMID 17394337, PMID 15358316, PMID 19544289; conditions: carboxylesterase; cited from earlier work
5‐LO [4] = molecular target: T1, 5‐LO; set-up: endogenous in cells; host or cells: human polymorphonuclear leukocytes isolated from heparinized blood; method as in PMID 22347509, PMID 28680195; conditions: read-out: IC50 of LT biosynthesis in whole blood; cited from earlier work
[5] = set-up: method as in PMID 17394337, PMID 15358316, PMID 19544289; conditions: oral administration to rats; cited from earlier work

Compound: O=C(/C=C/c1cc(O)ccc1O)OCCc1ccccc1 [compound 5]
Inhibition of biosynthesis of 5‐LO products in transfected HEK293 cells (5‐LO [1]): very good inhibitory activity
Inhibitory activity against 5‐LO product biosynthesis after incubation with HepaRG cells (HepaRG cells): lost all their inhibitory activity

Compound: O=C(/C=C/c1ccc(O)c(O)c1)OCCc1ccccc1 [CAPE (2), caffeic acid phenethyl ester, reference compound]
IC50 (5‐LO [2]): 500 nM
Stability in rat plasma [3]: rapidly hydrolyzed to caffeic acid
IC50 (5‐LO [4]): 1800 nM
Inhibitory activity against 5‐LO product biosynthesis after incubation with HepaRG cells (HepaRG cells): lost all their inhibitory activity
Major metabolite in urine [5]: caffeic acid

The remaining lines, values ahead:

Inhibitory activity against 5‐LO product biosynthesis after incubation with HepaRG cells (HepaRG cells): maintained significant inhibition
Inhibitory activity retained after incubation in HepaRG cultures (HepaRG cells; after up to one hour of incubation): 50%
Compound: COc1cc(/C=C/C(=O)CCc2ccccc2)cc(OC)c1O [compound 10, sinapic acid phenethyl ketone]

Inhibitory activity against 5‐LO product biosynthesis after incubation with HepaRG cells (HepaRG cells): lost all their inhibitory activity
Compound: O=C(/C=C/c1ccc(O)c(O)c1)CCCc1ccccc1 [compound 7]

Inhibitory activity against 5‐LO product biosynthesis after incubation with HepaRG cells (HepaRG cells): lost all their inhibitory activity
Compound: O=C(/C=C/c1cc(O)ccc1O)CCc1ccccc1 [compound 8]
